Measurements published in patent US9777020B2, “Furo-3-carboxamide derivatives and methods of use” (AbbVie Inc., priority 2014, dated 2017).

Target: TrkA (Homo sapiens (Human), UniProt P04629)
Test: TrkA kinase HTRF enzyme inhibition assay
Type: biochemical
Conditions: TrkA pre-incubated with 200 μM ATP
Method: TrkA enzyme was obtained from Invitrogen (as catalog numbers PV3144, PV3616, and PV3617, respectively). Enzyme activity was measured in an HTRF® (homogeneous time resolved fluorescence) assay, which detects enzymatic phosphorylation of a biotinylated synthetic peptide substrate (an LCK peptide analog, biotin-ahx-[…], from Genemed Synthesis). Phosphorylation is assessed by HTRF® in the presence of an anti-phosphotyrosine antibody conjugated to Eu^3+ cryptate (Cisbio) as donor fluorophore, and streptavidin conjugated to allophycocyanin (ProZyme) as acceptor fluorophore. The HTRF® signal was detected at two different wavelengths (620 nm and 665 nm) which were used to calculate the fluorescence ratio.
TrkA enzyme was titrated to a concentration optimized to ensure accurate measurement of the initial reaction rate. To allow the TrkA enzyme to undergo activation and auto-phosphorylation, a 20 minute pre-incubation with ATP was carried out (at twice the final targeted enzyme and ATP concentration) prior to addition of test compound and the peptide substrate.
TrkA in vitro assays were performed by pre-incubating TrkA (2-10 nM) with ATP (200 μM) for 20 minutes at ambient temperature in 50 mM HEPES pH 7.4, 10 mM MgCl2, 2 mM MnCl2, 100 μM Na3VO4, 1 mM dithiothreitol, 0.01% BSA (bovine serum albumin). Then, to the activated Trk enzyme mixture was added the test compound in 2% dimethyl sulfoxide. After 10 minutes, the peptide substrate (125 nM) was added. After 1 hour, enzyme reactions were terminated by addition of equal reaction volumes of detection/stop reagent (containing 0.2 μg/mL anti-phosphotyrosine monoclonal antibody labeled with europium from Cisbio (catalog#PT66-K), and 4 μg/mL PhycoLink® Streptavidin-Allophycocyanin conjugate from ProZyme (catalog#PJ25S) in 60 mM EDTA in 40 mM HEPES pH 7.4, 480 mM KF, 0.01% Tween® 20 and 0.1% BSA bovine serum albumin) Reaction plates were stored at 4° C. overnight before reading the fluorescence ratio signal on a PerkinElmer EnVision™ fluorescence detector. Individual reaction wells were stopped at time points to obtain reaction rates. The test inhibitor compounds were assayed in duplicate, at half-log serial dilutions over a range of concentrations (e.g. starting at 50 μM or 5 μM as the high compound concentration). The percent Trk enzyme inhibition was calculated from the initial rates of the inhibited reactions relative to the uninhibited control. IC50 values were calculated by fitting the inhibition percent to the concentration of inhibitor [I] in the assay in equation 1 below, to solve for the IC50. Inhibition %=100[I]/([I]+[IC50]) equation 1

TrkA, sequence (P04629 33-796): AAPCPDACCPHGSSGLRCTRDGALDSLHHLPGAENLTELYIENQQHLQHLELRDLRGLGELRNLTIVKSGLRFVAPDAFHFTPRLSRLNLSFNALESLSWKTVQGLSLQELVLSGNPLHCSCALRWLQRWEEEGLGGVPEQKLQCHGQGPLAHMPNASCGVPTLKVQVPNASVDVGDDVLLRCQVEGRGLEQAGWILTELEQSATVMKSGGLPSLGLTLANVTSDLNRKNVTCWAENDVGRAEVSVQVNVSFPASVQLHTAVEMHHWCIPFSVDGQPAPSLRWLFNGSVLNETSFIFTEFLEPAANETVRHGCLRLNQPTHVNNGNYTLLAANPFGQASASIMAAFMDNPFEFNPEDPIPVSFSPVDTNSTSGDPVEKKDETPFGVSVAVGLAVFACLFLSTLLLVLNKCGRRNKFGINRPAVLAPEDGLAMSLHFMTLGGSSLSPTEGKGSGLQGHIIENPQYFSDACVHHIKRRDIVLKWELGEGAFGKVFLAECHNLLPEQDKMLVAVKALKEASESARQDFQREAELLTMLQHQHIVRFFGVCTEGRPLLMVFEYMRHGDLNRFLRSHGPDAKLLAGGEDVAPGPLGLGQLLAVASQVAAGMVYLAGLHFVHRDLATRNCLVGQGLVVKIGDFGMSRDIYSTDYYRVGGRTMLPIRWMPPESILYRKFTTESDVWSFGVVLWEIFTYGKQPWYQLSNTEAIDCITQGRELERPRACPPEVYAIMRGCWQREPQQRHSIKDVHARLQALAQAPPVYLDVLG

Row | Structure (SMILES) | IC50
1 | COc1nc(N2CCN(C(=O)N3CCCC3)CC2)ccc1NC(=O)c1coc2c1C(=O)NC(C)(C)C2 [Example 123, N-{2-methoxy-6-[4-(pyrrolidin-1-ylcarbonyl)piperazin-1-yl]pyridin-3-yl}-6,6-dimethyl-4-oxo-4,5,6,7-tetrahydrofuro[3,2-c]pyridine-3-carboxamide] | 11.9 nM
2 | Cn1cc2cc(NC(=O)c3coc4c3C(=O)CC3(CC3)C4)ccc2n1 [Example 159, N-(2-methyl-2H-indazol-5-yl)-4-oxo-4,7-dihydro-5H-spiro[1-benzofuran-6,1′-cyclopropane]-3-carboxamide] | 10.3 nM
3 | CCOc1nc(N2CCN(C(=NC#N)NC)CC2)ccc1NC(=O)c1coc2c1C(=O)NCC2 [Example 93, N-{6-[4-(N′-cyano-N-methylcarbamimidoyl)piperazin-1-yl]-2-ethoxypyridin-3-yl}-4-oxo-4,5,6,7-tetrahydrofuro[3,2-c]pyridine-3-carboxamide] | 16.3 nM
4 | CCOc1nc(N2CCN(C(C)=O)CC2)ccc1NC(=O)c1coc2c1C(=O)N(C)C(C)(C)C2 [Example 173, N-[6-(4-acetylpiperazin-1-yl)-2-ethoxypyridin-3-yl]-5,6,6-trimethyl-4-oxo-4,5,6,7-tetrahydrofuro[3,2-c]pyridine-3-carboxamide] | 3.5 nM
5 | CCOc1nc(N2CCN(C(C)=O)CC2)ccc1NC(=O)c1coc2c1C(=O)N(CC(O)CO)C(C)(C)C2 (stereo not shown) [Example 119, N-[6-(4-acetylpiperazin-1-yl)-2-ethoxypyridin-3-yl]-5-(2,3-dihydroxypropyl)-6,6-dimethyl-4-oxo-4,5,6,7-tetrahydrofuro[3,2-c]pyridine-3-carboxamide] | 6.8 nM
6 | COc1cc(N2CCN(C(C)=O)CC2)ccc1NC(=O)c1coc2c1C(=O)CC(C)(C)C2 [Example 158, N-[4-(4-acetylpiperazin-1-yl)-2-methoxyphenyl]-6,6-dimethyl-4-oxo-4,5,6,7-tetrahydro-1-benzofuran-3-carboxamide] | 4.2 nM
7 | CN1CCc2occ(C(=O)Nc3ccc(O)cc3)c2C1=O [Example 59, N-(4-hydroxyphenyl)-5-methyl-4-oxo-4,5,6,7-tetrahydrofuro[3,2-c]pyridine-3-carboxamide] | 984 nM
8 | O=C(Nc1cnccn1)c1coc2c1C(=O)NCC2 [Example 37, 4-oxo-N-(pyrazin-2-yl)-4,5,6,7-tetrahydrofuro[3,2-c]pyridine-3-carboxamide] | 3210 nM
9 | COCC1(C)CC(=O)c2c(C(=O)Nc3ccc(N4CCNCC4)cc3OC)coc2C1 (stereo not shown) [Example 166, 6-(methoxymethyl)-N-[2-methoxy-4-(piperazin-1-yl)phenyl]-6-methyl-4-oxo-4,5,6,7-tetrahydro-1-benzofuran-3-carboxamide] | 104 nM
10 | CC(C)Oc1nc(N2C[C@H]3CCN(C(=O)N4CCN(C)CC4)[C@H]3C2)ccc1NC(=O)c1coc2c1C(=O)NC(C)(C)C2 [Example 132, N-{2-isopropoxy-6-[(3aR,6aR)-1-[(4-methylpiperazin-1-yl)carbonyl]hexahydropyrrolo[3,4-b]pyrrol-5(1H)-yl]pyridin-3-yl}-6,6-dimethyl-4-oxo-4,5,6,7-tetrahydrofuro[3,2-c]pyridine-3-carboxamide] | 6.9 nM
11 | Cc1cc(NC(=O)c2coc3c2C(=O)NCC3)no1 [Example 38, N-(5-methyl-1,2-oxazol-3-yl)-4-oxo-4,5,6,7-tetrahydrofuro[3,2-c]pyridine-3-carboxamide] | 1720 nM
12 | Cc1cc(NC(=O)c2coc3c2C(=O)N(C)CC3)no1 [Example 66, 5-methyl-N-(5-methyl-1,2-oxazol-3-yl)-4-oxo-4,5,6,7-tetrahydrofuro[3,2-c]pyridine-3-carboxamide] | 5080 nM
13 | CC(=O)N1CCN(c2ccc(NC(=O)c3coc4c3C(=O)NC(C)(C)C4)c(OCC(F)(F)F)n2)CC1 [Example 178, N-[6-(4-acetylpiperazin-1-yl)-2-(2,2,2-trifluoroethoxyl)pyridin-3-yl]-6,6-dimethyl-4-oxo-4,5,6,7-tetrahydrofuro[3,2-c]pyridine-3-carboxamide] | 5.2 nM
14 | CN1CCc2occ(C(=O)Nc3cccc(C#N)c3)c2C1=O [Example 71, N-(3-cyanophenyl)-5-methyl-4-oxo-4,5,6,7-tetrahydrofuro[3,2-c]pyridine-3-carboxamide] | 3670 nM
15 | CN1CCN(c2ccc(NC(=O)c3coc4c3C(=O)NCC4)cc2)CC1 [Example 17, N-[4-(4-methylpiperazin-1-yl)phenyl]-4-oxo-4,5,6,7-tetrahydrofuro[3,2-c]pyridine-3-carboxamide] | 81.4 nM
16 | COc1nc(N2CCN(C(C)=O)CC2)ccc1NC(=O)c1coc2c1C(=O)NC(C)(C)C2 [Example 122, N-[6-(4-acetylpiperazin-1-yl)-2-methoxypyridin-3-yl]-6,6-dimethyl-4-oxo-4,5,6,7-tetrahydrofuro[3,2-c]pyridine-3-carboxamide] | 14.1 nM
17 | CC(=O)N1CCN(c2ccc(NC(=O)c3coc4c3C(=O)NCC4)c(OC3COC3)n2)CC1 [Example 21, N-[6-(4-acetylpiperazin-1-yl)-2-(oxetan-3-yloxy)pyridin-3-yl]-4-oxo-4,5,6,7-tetrahydrofuro[3,2-c]pyridine-3-carboxamide] | 21.6 nM
18 | COCCOc1nc(N2CCN(C(C)=O)CC2)ccc1NC(=O)c1coc2c1C(=O)N(CCOCc1ccccc1)CC2 [Example 85, N-[6-(4-acetylpiperazin-1-yl)-2-(2-methoxyethoxyl)pyridin-3-yl]-5-[2-(benzyloxy)ethyl]-4-oxo-4,5,6,7-tetrahydrofuro[3,2-c]pyridine-3-carboxamide] | 266 nM
19 | CCOc1nc(N2CCN(C(C)=O)CC2)ccc1NC(=O)c1coc2c1C(=O)N([C@H](C)COC(C)=O)CC2 [Example 98, (2R)-2-[3-{[6-(4-acetylpiperazin-1-yl)-2-ethoxypyridin-3-yl]carbamoyl}-4-oxo-6,7-dihydrofuro[3,2-c]pyridin-5(4H)-yl]propyl acetate] | 1.5 nM
20 | CCOc1ccc(NC(=O)c2coc3c2C(=O)NCC3)cn1 [Example 44, N-(6-ethoxypyridin-3-yl)-4-oxo-4,5,6,7-tetrahydrofuro[3,2-c]pyridine-3-carboxamide] | 4470 nM
21 | O=C(Nc1ccc2cn[nH]c2c1)c1coc2c1C(=O)NCC2 [Example 34, N-(1H-indazol-6-yl)-4-oxo-4,5,6,7-tetrahydrofuro[3,2-c]pyridine-3-carboxamide] | 910 nM
22 | COc1cc(N2CCN(C(=O)CC(C)(C)C)CC2)ccc1NC(=O)c1coc2c1C(=O)NCC2 [Example 79, N-{4-[4-(3,3-dimethylbutanoyl)piperazin-1-yl]-2-methoxyphenyl}-4-oxo-4,5,6,7-tetrahydrofuro[3,2-c]pyridine-3-carboxamide] | 44.7 nM
23 | CCOc1nc(N2CCN(C(C)=O)CC2)ccc1NC(=O)c1coc2c1C(=O)N([C@H](C)CO)CC2 [Example 99, N-[6-(4-acetylpiperazin-1-yl)-2-ethoxypyridin-3-yl]-5-[(2R)-1-hydroxypropan-2-yl]-4-oxo-4,5,6,7-tetrahydrofuro[3,2-c]pyridine-3-carboxamide] | 3.3 nM
24 | CCOc1nc(N2CCN(C(C)=O)CC2)ccc1NC(=O)c1coc2c1C(=O)N(CCO)C1(CCC1)C2 [Example 116, N-[6-(4-acetylpiperazin-1-yl)-2-ethoxypyridin-3-yl]-5′-(2-hydroxyethyl)-4′-oxo-4′,7′-dihydro-5′H-spiro[cyclobutane-1,6′-furo[3,2-c]pyridine]-3′-carboxamide] | 3.1 nM
25 | NC(=O)c1ccc(NC(=O)c2coc3c2C(=O)NCC3)cc1 [Example 13, N-(4-carbamoylphenyl)-4-oxo-4,5,6,7-tetrahydrofuro[3,2-c]pyridine-3-carboxamide] | 166 nM
26 | COc1ccc(NC(=O)c2coc3c2C(=O)N(C)CC3)cn1 [Example 69, N-(6-methoxypyridin-3-yl)-5-methyl-4-oxo-4,5,6,7-tetrahydrofuro[3,2-c]pyridine-3-carboxamide] | 4340 nM
27 | Cn1cc2cc(NC(=O)c3coc4c3C(=O)CNC4)ccc2n1 [Example 160, N-(2-methyl-2H-indazol-5-yl)-4-oxo-4,5,6,7-tetrahydrofuro[2,3-c]pyridine-3-carboxamide] | 258 nM
28 | CC(=O)N1CCN(c2ccc(NC(=O)c3coc4c3C(=O)CC(C)(C)C4)nc2)CC1 [Example 156, N-[5-(4-acetylpiperazin-1-yl)pyridin-2-yl]-6,6-dimethyl-4-oxo-4,5,6,7-tetrahydro-1-benzofuran-3-carboxamide] | 46.7 nM
